Data set [1] concerns HeLa cervical adenocarcinoma. Put plainly: In vitro cell proliferation inhibition, HeLa. Type of data set: cell-based. The settings on record: Homo sapiens; HeLa cell line; ATP-Lite method or C14 thymidine method; read-out: HeLa IC50. The text has this: (§1) The ability of a test compound to inhibit unregulated in vitro cell proliferation may be determined by measuring incorporation of ^14C-labelled thymidine into newly synthesized DNA within cell lines derived from carcinomas originating from several tissues. Accordingly, the effect of a test compound on proliferation of cells with a variety of phenotypes may be determined.
(§2) Carcinoma cell lines used include the HeLa cervical adenocarcinoma from the American Type Culture Collection (ATCC Cat. #CCL2), SK-OV-3 ovarian carcinoma (ATCC Cat. #HTB-77), MCF-7 breast carcinoma (ATCC Cat. #HTB-22), BT474 breast carcinoma (ATCC Cat. #HTB-20), SKBR3 breast carcinoma (ATCC Cat. #HTB-30), A431 epidermoid carcinoma (ATCC Cat. #CRL-1555) and NCI-N87 gastric carcinoma (ATCC Cat. #CRL-5822).
(§3) The carcinoma cells are trypsinized and counted. The cells (3000-8000 count) are added to each well of a 96-well CytoStar tissue culture treated scintillating microplate (Amersham #RPNQ0160) in complete medium (100 μL) and the plate is then incubated in complete medium for 24 hrs at 37° C. in an inert atmosphere containing 5% CO2.
(§4) Test compound (1 μL) in 100% DMSO is added to the plate test-wells with DMSO only added to control-wells. The plate is incubated in complete medium for a second 24 hr period at 37° C. in an atmosphere containing 5% CO2.
(§5) An aliquot of a solution of Methyl ^14C-thymidine (56 mC/mmol) (NEN #NEC568 or Amersham #CFA532) and complete medium (20 μL to provide 0.2 μCi/well) is then added to each well and the plate is incubated for a third 24 hr period at 37° C. in an atmosphere containing 5% CO2.
(§6) The plate contents are then discarded, the plate is washed twice with PBS (200 μL) and then PBS (200 μL) is added to each well. The plate is sealed and the degree of methyl ^14C-thymidine incorporation is quantified on a Packard Top Count.
(§7) Cell proliferation of the Hela cell line was measured using the ATP-Lite method as described in the ATP Lite Kit (Perkin-Elmer Kit Number 6106941) or the C^14 method as described above. Cell proliferation of the other cell lines was measured using the C^14 method.
(§8) The term “NT” means that the compound indicated was not tested in a particular cell line. The lack of such testing is not intended to imply a belief that the compound is not otherwise active in a particular cell line or any other cell line not tested.

The test system of data set [2] is SK-OV-3 ovarian carcinoma. Kind of data set: In vitro cell proliferation inhibition, SK-OV-3. The settings on record: Homo sapiens; SK-OV-3 cells, 14C-thymidine incorporation. It counts as cell-based.
Text: as §1, §2, §3, §4, §5, §6, §7, §8
(Dividing cells build labelled thymidine or BrdU into new DNA.)

In a further data set the test system is MCF-7 breast carcinoma. Put plainly: In vitro cell proliferation inhibition, MCF-7. Type of data set: cell-based. The settings on record: Homo sapiens, MCF7; MCF-7 cells, 14C-thymidine incorporation.
Text: as §1, §2, §3, §4, §5, §6, §7, §8

Data set [3] has as its system NCI-N87 gastric carcinoma. Kind of data set: In vitro cell proliferation inhibition, NCI-N87. Type of data set: cell-based. The settings on record: Homo sapiens, NCI-N87; N87 cells, 14C-thymidine incorporation; read-out: IC50 N87.
Text: as §1, §2, §3, §4, §5, §6, §7, §8

The target in the next data set is T1, EGFR (Homo sapiens, UniProt P00533).
T1 construct: The intracellular portion of EGFR started at nucleotide 2189 (corresponding to amino acid 667) and ended at the termination codon; made in house; host or cells: Sf9 insect cells (baculovirus)
T1 sequence (P00533 669-1210 limits assumed): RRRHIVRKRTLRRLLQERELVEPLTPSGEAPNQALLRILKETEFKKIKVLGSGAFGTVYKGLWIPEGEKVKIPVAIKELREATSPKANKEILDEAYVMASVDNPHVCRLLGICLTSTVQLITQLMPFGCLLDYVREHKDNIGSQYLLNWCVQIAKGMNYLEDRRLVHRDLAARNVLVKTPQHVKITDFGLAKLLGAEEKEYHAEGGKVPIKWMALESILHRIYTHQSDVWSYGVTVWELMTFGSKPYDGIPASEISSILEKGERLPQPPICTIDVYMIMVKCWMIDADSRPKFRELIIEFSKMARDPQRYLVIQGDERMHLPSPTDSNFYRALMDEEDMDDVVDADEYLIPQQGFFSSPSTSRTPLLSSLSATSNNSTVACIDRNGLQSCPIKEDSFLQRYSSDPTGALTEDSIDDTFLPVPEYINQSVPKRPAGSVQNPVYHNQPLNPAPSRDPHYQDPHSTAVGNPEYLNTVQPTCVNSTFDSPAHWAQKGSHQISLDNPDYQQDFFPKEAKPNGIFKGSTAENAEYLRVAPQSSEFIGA
Put plainly: EGFR Kinase Assay.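 Further: recombinant GST-tagged EGFR expressed in Sf9 cells, phosphorylating biotinylated polyGluTyr with γ-33P ATP on Streptavidin Flashplates, 1 h at 30 °C, scintillation counting, inhibition relative to plate maximum and minimum signals.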 Type of data set: biochemical.

In another data set the target is T2, HER-2 (Homo sapiens, UniProt P04626).
T2 construct: purchased Proqinase (Freiburg, Germany)
T2 sequence (P04626 679-1255): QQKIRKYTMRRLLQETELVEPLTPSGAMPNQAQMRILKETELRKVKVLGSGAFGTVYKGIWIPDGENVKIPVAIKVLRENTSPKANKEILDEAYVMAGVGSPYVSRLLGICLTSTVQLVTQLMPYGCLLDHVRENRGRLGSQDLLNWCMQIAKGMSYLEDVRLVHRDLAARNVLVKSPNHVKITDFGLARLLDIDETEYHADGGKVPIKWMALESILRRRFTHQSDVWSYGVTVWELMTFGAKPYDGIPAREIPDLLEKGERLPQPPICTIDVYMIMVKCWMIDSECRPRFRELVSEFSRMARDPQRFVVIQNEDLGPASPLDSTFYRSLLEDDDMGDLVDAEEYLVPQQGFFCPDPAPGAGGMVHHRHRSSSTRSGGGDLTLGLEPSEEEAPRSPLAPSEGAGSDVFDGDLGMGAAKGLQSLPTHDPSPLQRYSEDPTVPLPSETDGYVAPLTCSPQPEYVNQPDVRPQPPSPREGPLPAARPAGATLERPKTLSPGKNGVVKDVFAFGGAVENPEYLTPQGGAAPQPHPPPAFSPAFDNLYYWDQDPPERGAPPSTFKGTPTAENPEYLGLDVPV
Put plainly: HER-2 Kinase Assay.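 Further: HER2 kinase reaction read by scintillation counting, inhibition scaled between maximum and minimum signals set on each plate, IC50 from inhibition against log concentration.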 It counts as biochemical. The settings on record: read-out: HER2 IC50.

Another data set concerns BT474 breast carcinoma. Put plainly: In vitro cell proliferation inhibition, BT474. It counts as cell-based. The settings on record: Homo sapiens, BT-474; BT474 cells, 14C-thymidine incorporation; read-out: IC50 BT474.
Text: as §1, §2, §3, §4, §5, §6, §7, §8

The test system of a further data set is SKBR3 breast carcinoma. Kind of data set: In vitro cell proliferation inhibition, SKBR3. Type of data set: cell-based. The settings on record: Homo sapiens, SK-BR-3; SKBR3 cells, 14C-thymidine incorporation; read-out: IC50 SKBR3.
Text: as §1, §2, §3, §4, §5, §6, §7, §8

Data set [4] concerns A431 epidermoid carcinoma. Put plainly: In vitro cell proliferation inhibition, A431. It counts as cell-based. The settings on record: Homo sapiens, A-431; A431 cells, 14C-thymidine incorporation; read-out: IC50 A431.
Text: as §1, §2, §3, §4, §5, §6, §7, §8

Data set [5] can be described thus: Blood-Brain Barrier Penetration (concentration in plasma and brain). It counts as in vivo, Sprague Dawley rats. The settings on record: male, Sprague Dawley, rat; for concentration at 60 min: male Sprague Dawley rats; for concentration at 120 min: 120 min (brain). The protocol: The blood-brain barrier penetration of Compound 78 was examined in male Sprague Dawley rats following i.v. (3 mg/kg) or oral (10 mg/kg) administration.
The i.v. formulation consisted of a 1 mg/mL dose in vehicle (10% solutol in D5W at pH 3) with plasma samples drawn at 0.25 hours, 0.5 hours and 1 hour after administration.
The oral (p.o) formulation consisted of a 1 mg/mL dose in vehicle (0.5% methylcellulose) with plasma samples drawn at 0.5 hours, 1 hour and 2 hours after administration.
The plasma samples (0.5 ml) were collected and centrifuged (2000 rpm, 3 min), then stored at −60° C. until LC-MS/MS analysis. Brain samples were collected immediately after the last blood sample collection. The samples were rinsed with 0.9% NaCl, patted dry, then weighed and placed in Falcon 14 mL polypropylene round-bottom tubes containing 3 mL methanol. The methanolic mixtures were homogenized with an OMNI TH115 homogenizer then centrifuged for 10 minutes at 7,000 rpm. The supernatant was removed and stored frozen in 15 mL polyethylene tubes at −60° C. until LC-MS/MS analysis.

Our source for the IC50, concentration and Kp values is patent US8153791B2, “Substituted pyrimidinyl oxime kinase inhibitors” (Janssen Pharmaceutica N.V., priority 2005, dated 2012).

The structures appear in SMILES notation. Where two headings read alike, the source gives them in different places.

Usually IC50 stands for the midpoint of a concentration-inhibition curve.

Consider `CO/N=C/c1c(N)ncnc1Nc1ccc(OCc2ccccc2)c(Cl)c1` [Cpd 9, (5E)-4-amino-6-(4-benzyloxy-3-chloro-phenylamino)-pyrimidine-5-carbaldehyde O-methyl-oxime], for which the IC50 was determined as 35000 nM in data set [1], 100000 nM in data set [2], 86600 nM with MCF-7 breast carcinoma and 700 nM in data set [3].

Turning to `Nc1ncnc(Nc2ccc3c(cnn3Cc3cccc(F)c3)c2)c1/C=N/OCCN1CCOCC1` [Cpd 19, (5E)-4-amino-6-[1-(3-fluoro-benzyl)-1H-indazol-5-ylamino]-pyrimidine-5-carbaldehyde O-(2-morpholin-4-yl-ethyl)-oxime], the IC50 amounted to 20 nM at EGFR; 50 nM at HER-2; 10000 nM in [1]; 19100 nM in [2]; 2500 nM with MCF-7 breast carcinoma; 30 nM in the data set with BT474 breast carcinoma. In addition, the IC50 is 100 nM in the data set on SKBR3 breast carcinoma, 1100 nM in [4] and 40 nM in data set [3].

Take `CO/N=C/c1c(N)ncnc1Nc1ccc2c(ccn2Cc2cccc(F)c2)c1` [Cpd 34, (5E)-4-amino-6-[1-(3-fluoro-benzyl)-1H-indol-5-ylamino]-pyrimidine-5-carbaldehyde O-methyl-oxime]: the IC50 in data set [1] turned out to be 3500 nM; in data set [2] it was 3200 nM; in the data set with MCF-7 breast carcinoma, 3800 nM; in [3] it was 200 nM.

For the compound `CO/N=C/c1c(N)ncnc1Nc1ccc2[nH]c(Cc3cccc(F)c3)nc2c1` [Cpd 60, (5E)-4-amino-6-[2-(3-fluoro-benzyl)-1H-benzoimidazol-5-ylamino]-pyrimidine-5-carbaldehyde O-methyl-oxime], the IC50 in data set [1] is 10000 nM; in [2], 10000 nM; with MCF-7 breast carcinoma, 10000 nM; in data set [3], 600 nM.

Take `Nc1ncnc(Nc2ccc(OCc3cccc(F)c3)c(Cl)c2)c1/C=N/OCCCO` [Cpd 75, (5E)-4-amino-6-[3-chloro-4-(3-fluoro-benzyloxy)-phenylamino]-pyrimidine-5-carbaldehyde O-(3-hydroxy-propyl)-oxime]: the IC50 against EGFR came out at 8 nM; on HER-2, 9 nM; in data set [1], 40100 nM; in [2] it was 10000 nM; with MCF-7 breast carcinoma, 30700 nM; in [3] it was 1 nM.

Regarding `Nc1ncnc(Nc2ccc(OCc3ccccc3)c(Cl)c2)c1/C=N/OCCCO` [Cpd 76, (5E)-4-amino-6-(4-benzyloxy-3-chloro-phenylamino)-pyrimidine-5-carbaldehyde O-(3-hydroxy-propyl)-oxime], the IC50 is 10 nM against EGFR; 30 nM on HER-2; 59400 nM in data set [1]; 24100 nM in [2]; 10000 nM in the data set on MCF-7 breast carcinoma; 200 nM in the data set with BT474 breast carcinoma. The IC50 with SKBR3 breast carcinoma was found to be 300 nM; in data set [4], 1800 nM; in [3] it was 300 nM.

For the compound `Nc1ncnc(Nc2ccc(OCc3ccccc3)c(Cl)c2)c1/C=N/OCCN1CCOCC1` [Cpd 78], the IC50 against EGFR was determined as 20 nM; at HER-2, 60 nM; in [1] it was 19600 nM; in data set [2], 100000 nM; in the data set on MCF-7 breast carcinoma it was 100000 nM; with BT474 breast carcinoma it was 60 nM. Further, the IC50 in the data set with SKBR3 breast carcinoma came out at 200 nM; in [4] it was 800 nM; in data set [3], 200 nM. The concentration at 60 min is 307 ± 55 ng/g in data set [5] (brain, iv, 3 mg/kg, i.v. 3 mg/kg, 60 min (brain), read-out: Concentration in Brain, Mean ± SEM); 124 ± 5.5 ng/mL in [5] (plasma, iv, 3 mg/kg, i.v. 3 mg/kg, 60 min (plasma), read-out: Concentration in Plasma, Mean ± SEM); 73.6 ± 16.4 ng/mL in [5] (plasma, po, 10 mg/kg, p.o. 10 mg/kg, 60 min (plasma), read-out: Concentration in Plasma, Mean ± SEM). Also, the concentration at 120 min in data set [5] (brain, po, 10 mg/kg, p.o. 10 mg/kg, first of two lines so labelled, read-out: Concentration in Brain, Mean ± SEM) came out at 46.1 ± 17.4 ng/g; in data set [5] (brain, po, 10 mg/kg, p.o. 10 mg/kg, second of two lines so labelled, read-out: Concentration in Brain, Mean ± SEM), 51.2 ± 13.7 ng/g. For the same compound, the Kp at 1 h in data set [5] (brain/plasma, iv, i.v. 3 mg/kg, 60 min, read-out: Brain/Plasma Ratio) turned out to be 2.5. Also, the Kp at 2 h in data set [5] (brain/plasma, po, p.o. 10 mg/kg, read-out: Brain/Plasma Ratio) was 1.2.

On to `Nc1ncnc(Nc2ccc3c(ccn3Cc3cccc(F)c3)c2)c1/C=N/OCCCO` [Cpd 91, (5E)-4-amino-6-[1-(3-fluoro-benzyl)-1H-indol-5-ylamino]-pyrimidine-5-carbaldehyde O-(3-hydroxy-propyl)-oxime], for which the IC50 against EGFR came to 7 nM; on HER-2, 30 nM; in [1], 9400 nM; in [2], 5400 nM; in the data set with MCF-7 breast carcinoma, 10000 nM; with BT474 breast carcinoma it was 200 nM. The IC50 in the data set on SKBR3 breast carcinoma came to 300 nM; in [4], 1300 nM; in data set [3] it was 200 nM.

Regarding `Nc1ncnc(Nc2ccc(OCc3ccccc3)c(Cl)c2)c1/C=N/OCCN1CCCCC1` [Cpd 95, (5E)-4-amino-6-(4-benzyloxy-3-chloro-phenylamino)-pyrimidine-5-carbaldehyde O-(2-piperidin-1-yl-ethyl)-oxime], the IC50 at EGFR was determined as 50 nM; at HER-2, 200 nM; in data set [1], 12100 nM; in data set [2], 2400 nM; with MCF-7 breast carcinoma, 1000 nM; in the data set with BT474 breast carcinoma, 10000 nM. Besides, the IC50 is 10000 nM in the data set with SKBR3 breast carcinoma, 100000 nM in [4] and 1100 nM in data set [3].

For `Nc1ncnc(Nc2ccc3c(cnn3Cc3cccc(F)c3)c2)c1/C=N/OCCN1CCCCC1` [Cpd 96, (5E)-4-amino-6-[1-(3-fluoro-benzyl)-1H-indazol-5-ylamino]-pyrimidine-5-carbaldehyde O-(2-piperidin-1-yl-ethyl)-oxime], the IC50 on EGFR was 60 nM; on HER-2 it was 100 nM; in data set [1], 14700 nM; in [2] it was 15300 nM; in the data set on MCF-7 breast carcinoma it was 2100 nM; in the data set with BT474 breast carcinoma, 200 nM. The IC50 in the data set with SKBR3 breast carcinoma stood at 400 nM; in [4], 800 nM; in data set [3], 200 nM.
